Test results from ChEMBL document CHEMBL1141016, “Orally bioavailable prodrugs of a BCS class 2 molecule, an inhibitor of HIV-1 reverse transcriptase” (Bioorg Med Chem Lett, 2008).
In brackets after ≈: the same amount, converted by molar mass.

Key:
Rattus norvegicus [1] = assay: Tmax in Hanover Wistar rat assessed as 5-(6-chloro-2-fluoro-3-((5-methyl-6-oxo-1,6-dihydropyridazin-3-yl)methyl)phenoxy)isophthalonitrile level at 50 mg/kg, po; type: ADME, organism-based; parameters: dose 50 mg/kg, route oral; conditions: in vivo
Rattus norvegicus [2] = assay: AUC (0 to 24 hrs) in Hanover Wistar rat assessed as 5-(6-chloro-2-fluoro-3-((5-methyl-6-oxo-1,6-dihydropyridazin-3-yl)methyl)phenoxy)isophthalonitrile level at 50 mg/kg, po; parameters: unit not given here; conditions: in vivo
Rattus norvegicus [3] = assay: Cmax in Hanover Wistar rat assessed as 5-(6-chloro-2-fluoro-3-((5-methyl-6-oxo-1,6-dihydropyridazin-3-yl)methyl)phenoxy)isophthalonitrile level at 50 mg/kg, po; type: ADME, organism-based; parameters: dose 50 mg/kg, route oral; conditions: in vivo
[4] = Aqueous stability assessed as half life at pH 6.5; type: physicochemical
[5] = Aqueous stability assessed as half life at pH 2; type: physicochemical
[6] = Permeability across human Caco-2 cells; type: ADME, cell-based; conditions: read-out: permeability
[7] = Cmax in Hanover Wistar rat at 5 mg/kg, po; type: ADME, organism-based; parameters: dose 5 mg/kg, route oral; conditions: in vivo
[8] = Dissociation constant, pKa of the compound; type: physicochemical
[9] = Aqueous solubility at pH 6.5; type: physicochemical
Rattus norvegicus [10] = assay: AUC (0 to 24 hrs) in Hanover Wistar rat at 50 mg/kg, po; conditions: in vivo
[11] = Cmax in Hanover Wistar rat at 50 mg/kg, po; type: ADME, organism-based; parameters: dose 50 mg/kg, route oral; conditions: in vivo
[12] = Tmax in Hanover Wistar rat at 5 mg/kg, po; type: ADME, organism-based; parameters: dose 5 mg/kg, route oral; conditions: in vivo
Rattus norvegicus [13] = assay: AUC (0 to 24 hrs) in Hanover Wistar rat at 5 mg/kg, po; conditions: in vivo
[14] = Tmax in Hanover Wistar rat at 50 mg/kg, po; type: ADME, organism-based; parameters: dose 50 mg/kg, route oral; conditions: in vivo

Structure (SMILES): Cc1cc(Cc2ccc(Cl)c(Oc3cc(C#N)cc(C#N)c3)c2F)nn(COC(=O)OCCN2CCOCC2)c1=O.Cl
- Tmax (Rattus norvegicus [1]): 3.3 h
- AUC (Rattus norvegicus [2]): 89
- Cmax (Rattus norvegicus [3]): 5.6 µM
- half-life [4]: 3.5 h
- half-life [5]: 301 h

Structure (SMILES): Cc1cc(Cc2ccc(Cl)c(Oc3cc(C#N)cc(C#N)c3)c2F)nn(COC(=O)CN)c1=O.Cl
- Tmax (Rattus norvegicus [1]): 4 h
- AUC (Rattus norvegicus [2]): 93
- Cmax (Rattus norvegicus [3]): 6.3 µM
- half-life [4]: 1 h
- half-life [5]: 38 h

Structure (SMILES): Cc1cc(Cc2ccc(Cl)c(Oc3cc(C#N)cc(C#N)c3)c2F)nn(COC(=O)[C@@H](N)C(C)C)c1=O.Cl
- Tmax (Rattus norvegicus [1]): 4 h
- AUC (Rattus norvegicus [2]): 134
- Cmax (Rattus norvegicus [3]): 9.1 µM
- half-life [4]: 3.2 h
- half-life [5]: 1420 h

Structure (SMILES): Cc1cc(Cc2ccc(Cl)c(Oc3cc(C#N)cc(C#N)c3)c2F)nn(COC(=O)c2cccnc2)c1=O.Cl
- Tmax (Rattus norvegicus [1]): 4.7 h
- AUC (Rattus norvegicus [2]): 101
- Cmax (Rattus norvegicus [3]): 8.8 µM
- half-life [4]: 4.7 h
- half-life [5]: 10 h

Structure (SMILES): Cc1cc(Cc2ccc(Cl)c(Oc3cc(C#N)cc(C#N)c3)c2F)nn(COC(=O)[C@@H]2CCCN2)c1=O.Cl
- Tmax (Rattus norvegicus [1]): 4.7 h
- AUC (Rattus norvegicus [2]): 108
- Cmax (Rattus norvegicus [3]): 7.3 µM
- half-life [4]: < 0.3 h
- half-life [5]: 17 h

Structure (SMILES): Cc1cc(Cc2ccc(Cl)c(Oc3cc(C#N)cc(C#N)c3)c2F)nn(COC(=O)CCC(=O)O)c1=O
- Tmax (Rattus norvegicus [1]): 2.7 h
- AUC (Rattus norvegicus [2]): 142
- Cmax (Rattus norvegicus [3]): 13.2 µM
- half-life [4]: 40 h
- half-life [5]: 462 h

Structure (SMILES): Cc1cc(Cc2ccc(Cl)c(Oc3cc(C#N)cc(C#N)c3)c2F)nn(COP(=O)([O-])[O-])c1=O.[Na+].[Na+]
- Tmax (Rattus norvegicus [1]): 8 h
- AUC (Rattus norvegicus [2]): 178
- Cmax (Rattus norvegicus [3]): 12.7 µM
- half-life [4]: > 24 h
- half-life [5]: > 24 h

Structure (SMILES): Cc1cc(Cc2ccc(Cl)c(Oc3cc(C#N)cc(C#N)c3)c2F)nn(COC(=O)OCCN(C)C)c1=O.Cl
- Tmax (Rattus norvegicus [1]): 2 h
- AUC (Rattus norvegicus [2]): 108
- Cmax (Rattus norvegicus [3]): 7.3 µM
- half-life [4]: 0.9 h
- half-life [5]: 289 h

Structure (SMILES): Cc1cc(Cc2ccc(Cl)c(Oc3cc(C#N)cc(C#N)c3)c2F)n[nH]c1=O
- Papp [6]: 19 ×10⁻⁶ cm/s
- Cmax [7]: 0.96 µM
- pKa [8]: 10.5
- solubility [9]: 0.3 µg/mL (≈ 0.76 µM)
- AUC (Rattus norvegicus [10]): 20.3 uM.hr/ml
- Cmax [11]: 1.5 µM
- Tmax [12]: 3.7 h
- AUC (Rattus norvegicus [13]): 6.8 uM.hr/ml
- Tmax [14]: 3.3 h
